{"source": "the supplement of paper PMC10307832", "assay_in_all_cases": "relative viability (nuclei count vs DMSO), 5 days (fraction); higher = more cells survive", "key": {"OSI-027 + Pictilisib": {"compound": "COc1cccc2cc(-c3nc([C@H]4CC[C@H](C(=O)O)CC4)n4ncnc(N)c34)[nH]c12 [OSI-027] + CS(=O)(=O)N1CCN(Cc2cc3nc(-c4cccc5[nH]ncc45)nc(N4CCOCC4)c3s2)CC1 [Pictilisib] (partner 1 µM)", "summary_of_the_method": "(§1)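 Relative viability is defined as nuclei in treated wells over nuclei in vehicle wells. Duplicate plates were run and medians reported. Lung cancer cell lines in 1536-well plates were dosed by pin tool one day after seeding, with one drug or with a fixed anchor-drug dose plus five library-drug doses (not always all listed) in √10 steps, and nuclei were counted after 5 days.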"}, "Vemurafenib + Alpelisib": {"compound": "CCCS(=O)(=O)Nc1ccc(F)c(C(=O)c2c[nH]c3ncc(-c4ccc(Cl)cc4)cc23)c1F [Vemurafenib] + Cc1nc(NC(=O)N2CCC[C@H]2C(N)=O)sc1-c1ccnc(C(C)(C)C(F)(F)F)c1 [Alpelisib] (partner 2 µM)", "summary_of_the_method": "as §1"}, "Vemurafenib + Tozasertib": {"compound": "CCCS(=O)(=O)Nc1ccc(F)c(C(=O)c2c[nH]c3ncc(-c4ccc(Cl)cc4)cc23)c1F [Vemurafenib] + Cc1cc(Nc2cc(N3CCN(C)CC3)nc(Sc3ccc(NC(=O)C4CC4)cc3)n2)n[nH]1 [Tozasertib] (partner 0.1 µM)", "summary_of_the_method": "as §1"}, "Vemurafenib + Vorinostat": {"compound": "CCCS(=O)(=O)Nc1ccc(F)c(C(=O)c2c[nH]c3ncc(-c4ccc(Cl)cc4)cc23)c1F [Vemurafenib] + O=C(CCCCCCC(=O)Nc1ccccc1)NO [Vorinostat] (partner 1 µM)", "summary_of_the_method": "as §1"}}, "data": [{"cell line": "UMC-11", "values": [{"measurement": "relative viability", "setting": "OSI-027 + Pictilisib; first compound 0.01 µM", "result": 0.739}, {"measurement": "relative viability", "setting": "OSI-027 + Pictilisib; first compound 0.03162 µM", "result": 1.03}, {"measurement": "relative viability", "setting": "OSI-027 + Pictilisib; first compound 0.1 µM", "result": 0.664}, {"measurement": "relative viability", "setting": "OSI-027 + Pictilisib; first compound 0.3162 µM", "result": 0.636}, {"measurement": "relative viability", "setting": "OSI-027 + Pictilisib; first compound 1 µM", "result": 0.412}, {"measurement": "relative viability", "setting": "Vemurafenib + Alpelisib; first compound 0.03162 µM", "result": 0.954}, {"measurement": "relative viability", "setting": "Vemurafenib + Alpelisib; first compound 0.1 µM", "result": 0.947}, {"measurement": "relative viability", "setting": "Vemurafenib + Alpelisib; first compound 0.3162 µM", "result": 1.09}, {"measurement": "relative viability", "setting": "Vemurafenib + Alpelisib; first compound 1 µM", "result": 0.91}, {"measurement": "relative viability", "setting": "Vemurafenib + Tozasertib; first compound 0.03162 µM", "result": 0.217}, {"measurement": "relative viability", "setting": "Vemurafenib + Tozasertib; first compound 0.1 µM", "result": 0.216}, {"measurement": "relative viability", "setting": "Vemurafenib + Tozasertib; first compound 0.3162 µM", "result": 0.199}, {"measurement": "relative viability", "setting": "Vemurafenib + Tozasertib; first compound 1 µM", "result": 0.212}, {"measurement": "relative viability", "setting": "Vemurafenib + Vorinostat; first compound 0.03162 µM", "result": 0.383}, {"measurement": "relative viability", "setting": "Vemurafenib + Vorinostat; first compound 0.1 µM", "result": 0.439}, {"measurement": "relative viability", "setting": "Vemurafenib + Vorinostat; first compound 0.3162 µM", "result": 0.576}, {"measurement": "relative viability", "setting": "Vemurafenib + Vorinostat; first compound 1 µM", "result": 0.37}]}]}
